Columns and labels:
Type in all cases: cell-based
[1] = target: T1, human TLR8 (Homo sapiens, UniProt Q9NR97); assay: TLR8 cellular reporter assay (HEK293, NFκB-luc); details: lowest effective concentration; HEK293 transiently transfected with TLR8 and NFκB-luc; 6 hours incubation
T1 construct: expressed in transfected cells; host or cells: HEK293
T1 sequence (Q9NR97 27-1041): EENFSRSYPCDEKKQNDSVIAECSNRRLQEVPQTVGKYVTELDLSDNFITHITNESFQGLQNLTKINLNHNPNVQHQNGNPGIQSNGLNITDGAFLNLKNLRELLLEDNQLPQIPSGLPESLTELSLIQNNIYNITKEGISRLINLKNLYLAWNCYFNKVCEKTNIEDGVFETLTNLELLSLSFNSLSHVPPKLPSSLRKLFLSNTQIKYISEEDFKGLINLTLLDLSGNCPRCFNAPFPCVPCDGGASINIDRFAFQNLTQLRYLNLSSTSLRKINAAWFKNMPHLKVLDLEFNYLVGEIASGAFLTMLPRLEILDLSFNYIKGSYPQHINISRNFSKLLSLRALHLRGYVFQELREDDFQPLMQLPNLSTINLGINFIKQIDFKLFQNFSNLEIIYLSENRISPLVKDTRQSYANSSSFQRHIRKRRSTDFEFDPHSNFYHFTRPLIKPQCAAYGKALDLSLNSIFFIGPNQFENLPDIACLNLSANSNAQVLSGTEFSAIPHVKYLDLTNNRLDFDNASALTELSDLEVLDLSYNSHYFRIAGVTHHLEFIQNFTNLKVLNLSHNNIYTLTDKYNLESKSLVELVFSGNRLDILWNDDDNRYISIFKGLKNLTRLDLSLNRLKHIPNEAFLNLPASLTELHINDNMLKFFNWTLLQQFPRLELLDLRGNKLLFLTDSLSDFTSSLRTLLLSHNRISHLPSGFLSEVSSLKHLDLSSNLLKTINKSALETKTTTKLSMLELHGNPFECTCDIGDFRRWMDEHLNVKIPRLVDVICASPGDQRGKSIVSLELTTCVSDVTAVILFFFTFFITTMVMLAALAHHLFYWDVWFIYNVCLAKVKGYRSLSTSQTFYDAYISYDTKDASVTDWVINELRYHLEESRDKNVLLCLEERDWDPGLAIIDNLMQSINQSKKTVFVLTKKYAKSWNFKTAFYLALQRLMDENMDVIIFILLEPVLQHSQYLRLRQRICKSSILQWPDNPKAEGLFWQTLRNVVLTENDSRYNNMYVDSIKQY
Experimental: (§1) The ability of compounds to activate human TLR7 and/or TLR8 was assessed in a cellular reporter assay using HEK293 cells transiently transfected with a TLR7 or TLR8 expression vector and NFκB-luc reporter construct.
(§2) Briefly, HEK293 cells were grown in culture medium (DMEM supplemented with 10% FCS and 2 mM Glutamine). For transfection of cells in 15 cm dishes, cells were detached with Trypsin-EDTA, transfected with a mix of CMV-TLR7 or TLR8 plasmid (1700 ng), NFκB-luc plasmid (850 ng) and a transfection reagent and incubated for 48 h at 37° C. in a humidified 5% CO2 atmosphere. Transfected cells were then washed in PBS, detached with Trypsin-EDTA and resuspended in medium to a density of 1.25×10^5 cells/mL. Forty microliters of cells were then dispensed into each well in 384-well plates, where 200 nL of compound in 100% DMSO was already present. Following 6 hours incubation at 37° C., 5% CO2, the luciferase activity was determined by adding 15 μL of Steady Lite Plus substrate (Perkin Elmer) to each well and readout performed on a ViewLux ultraHTS microplate imager (Perkin Elmer). Dose response curves were generated from measurements performed in quadruplicates. Lowest effective concentrations (LEC) values, defined as the concentration that induces an effect which is at least two fold above the standard deviation of the assay, were determined for each compound.

[2] = target: T2, human TLR7 (Homo sapiens, UniProt Q9NYK1); assay: TLR7 cellular reporter assay (HEK293, NFκB-luc); details: lowest effective concentration; HEK293 transiently transfected with TLR7 and NFκB-luc; 6 hours incubation
T2 construct: expressed in transfected cells; host or cells: HEK293
T2 sequence (Q9NYK1 27-1049): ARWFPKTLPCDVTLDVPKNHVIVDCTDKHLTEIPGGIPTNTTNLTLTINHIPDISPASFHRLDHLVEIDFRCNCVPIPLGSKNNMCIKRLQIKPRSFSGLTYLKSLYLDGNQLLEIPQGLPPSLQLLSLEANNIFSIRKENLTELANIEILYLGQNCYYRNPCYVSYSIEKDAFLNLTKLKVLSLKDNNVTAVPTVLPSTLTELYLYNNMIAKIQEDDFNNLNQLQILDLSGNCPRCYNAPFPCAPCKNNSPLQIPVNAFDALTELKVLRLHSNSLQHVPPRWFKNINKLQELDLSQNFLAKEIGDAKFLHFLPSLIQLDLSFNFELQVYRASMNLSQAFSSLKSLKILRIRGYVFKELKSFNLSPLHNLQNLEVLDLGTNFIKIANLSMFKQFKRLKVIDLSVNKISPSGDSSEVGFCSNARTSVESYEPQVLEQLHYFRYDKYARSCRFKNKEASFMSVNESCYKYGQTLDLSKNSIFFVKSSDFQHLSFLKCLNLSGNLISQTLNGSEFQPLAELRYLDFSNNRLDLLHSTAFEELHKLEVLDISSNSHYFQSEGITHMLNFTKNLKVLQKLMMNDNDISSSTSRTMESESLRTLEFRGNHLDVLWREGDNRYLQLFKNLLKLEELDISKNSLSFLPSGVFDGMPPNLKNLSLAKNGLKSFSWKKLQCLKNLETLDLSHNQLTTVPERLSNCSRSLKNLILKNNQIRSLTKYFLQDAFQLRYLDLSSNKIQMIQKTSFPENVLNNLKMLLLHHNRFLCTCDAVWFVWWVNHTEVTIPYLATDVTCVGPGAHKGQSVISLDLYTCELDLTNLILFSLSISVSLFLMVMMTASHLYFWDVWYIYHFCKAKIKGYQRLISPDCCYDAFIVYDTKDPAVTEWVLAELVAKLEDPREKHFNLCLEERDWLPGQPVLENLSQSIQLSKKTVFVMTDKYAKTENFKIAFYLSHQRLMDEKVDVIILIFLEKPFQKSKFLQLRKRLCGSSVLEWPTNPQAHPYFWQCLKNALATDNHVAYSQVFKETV
Experimental: as §1, §2

[3] = system: interferon-stimulated responsive elements (ISRE); assay: Activation of ISRE promoter elements by conditioned media from PBMC (HEK-ISREluc); details: compound concentration applied to PBMCs overnight; supernatant on HEK-ISREluc cells 24 hours
Experimental: The potential of compounds to induce IFN-I was also evaluated by measuring the activation of interferon-stimulated responsive elements (ISRE) by conditioned media from PBMC. The ISRE element of sequence GAAACTGAAACT (SEQ ID NO: 1) is highly responsive to the STAT1-STAT2-IRF9 transcription factor, activated upon binding of IFN-I to their receptor IFNAR (Clontech, PT3372-5W). The plasmid pISRE-Luc from Clontech (ref. 631913) contains 5 copies of this ISRE element, followed by the firefly luciferase ORF. A HEK293 cell line stably transfected with pISRE-Luc (HEK-ISREluc) was established to profile the conditioned PBMC cell culture media.
Briefly, PBMCs were prepared from buffy coats of at least two donors using a standard Ficoll centrifugation protocol. Isolated PBMCs were resuspended in RPMI medium supplemented with 10% human AB serum and 2×10^5 cells/well were dispensed into 384-well plates containing compounds (70 μL total volume). After overnight incubation, 10 μL of supernatant was transferred to 384-well plates containing 5×10^3 HEK-ISREluc cells/well in 30 μL (plated the day before). Following 24 hours of incubation, activation of the ISRE elements was measured by assaying luciferase activity using 40 μL/well Steady Lite Plus substrate (Perkin Elmer) and measured with ViewLux ultraHTS microplate imager (Perkin Elmer). […]

| Human TLR 8 (LEC) [1] [µM] | Human TLR 7 (LEC) [2] [µM] | SMILES | HEK-ISRE luc (LEC) [3] [µM] |
| --- | --- | --- | --- |
| 1.7 | 2.0 | CCCC[C@@H](CCS(C)(=O)=O)Nc1nc(N)ncc1OC [Compound 1] | 0.65 |
| 9.2 | 1.4 | CCCC[C@@H](CC[S+](C)[O-])Nc1nc(N)ncc1OC (some centres unmarked) [Compound 2] | 4.8 |
| 10 | 3.9 | CCCC[C@@H](CCSC)Nc1nc(N)ncc1OC [E] | – |

Source: patent publication US10647684B2, “2-aminopyrimidine derivatives for the treatment of viral infections” (Janssen Sciences Ireland Unlimited Company, priority 2013, dated 2020)
